Data on 37 compounds can be found in patent US20090030024A1, “THIAZOLES AS FUNGICIDES” (priority 2005, published 2009).

A short description of the first data set: logP determination by retention times (calibration with alkan-2-ones).
Conditions: not given
For orientation: chromatographic logP means lipophilicity estimated from chromatographic retention. A higher chromatographic logP goes with higher lipophilicity. For the compound `CCc1nc(C)c(-c2ccnc(Nc3cccc(C(F)(F)F)c3)n2)s1` [Example 241, 4-(2-ethyl-4-methyl-1,3-thiazol-5-yl)-N-[3-(trifluoromethyl)phenyl]pyrimidine-2-amine], the chromatographic logP is 3.85.

In turn, `CC(=O)c1cccc(Nc2nccc(-c3sc(C)nc3C(F)(F)F)n2)c1` [Example 26, 1-[3-({4-[2-methyl-4-(trifluoromethyl)-1,3-thiazol-5-yl]pyrimidin-2-yl}amino)phenyl]ethanone] yielded a chromatographic logP of 3.02. Still for that read-out and setting: the same measure for `COCc1nc(C)c(-c2ccnc(Nc3ccc4c(c3)OCCO4)n2)s1` [Example 390, N-(2,3-dihydro-1,4-benzodioxin-6-yl)-4-[2-(methoxymethyl)-4-methyl-1,3-thiazol-5-yl]pyrimidine-2-amine]: 2.49. In turn, `Cc1nc(C(C)C)sc1-c1ccnc(Nc2cccc(C(F)(F)F)c2)n1` [Example 248, 4-(2-isopropyl-4-methyl-1,3-thiazol-5-yl)-N-[3-(trifluoromethyl)phenyl]pyrimidine-2-amine] came in with a chromatographic logP of 4.3. On the same count and under the same terms, the same measure for `COCc1nc(C)c(-c2ccnc(Nc3ccc(C#N)cc3)n2)s1` [Example 179, 4-({4-[2-(methoxymethyl)-4-methyl-1,3-thiazol-5-yl]pyrimidin-2-yl}amino)benzonitrile]: 2.57; for `Cc1nc(C2CC2)sc1-c1ccnc(Nc2cccc(O)c2)n1` [Example 148, 3-{[4-(2-cyclopropyl-4-methyl-1,3-thiazol-5-yl)pyrimidin-2-yl]amino}phenol]: 2.24. Still for that read-out and setting: the same measure for `COc1cc(Nc2nccc(-c3sc(C)nc3C(F)(F)F)n2)cc(OC)c1OC` [Example 310, 4-[2-methyl-4-(trifluoromethyl)-1,3-thiazol-5-yl]-N-(3,4,5-trimethoxyphenyl)pyrimidine-2-amine]: 3.02.

Still in this data set, the particulars now being: * HPLC reversed-phase C18, 40° C., mobile phase 0.1% aqueous formic acid and acetonitrile, linear gradient 10% to 95% acetonitrile.
Consider `CNc1nc(C)c(-c2ccnc(Nc3ccc(O)cc3)n2)s1` [Example 746, 4-({4-[4-methyl-2-(methylamine)-1,3-thiazol-5-yl]pyrimidin-2-yl}amino)phenol], for which the logP was 1.11*. In the case of `CC(=O)c1cccc(Nc2nccc(-c3sc(N(C)C)nc3C)n2)c1` [Example 685, 1-[3-({4-[2-(dimethylamine)-4-methyl-1,3-thiazol-5-yl]pyrimidin-2-yl}amino)phenyl]ethanone], the logP was 1.89*. For `CC(=O)c1ccc(Nc2nccc(-c3sc(N(C)C)nc3C(F)(F)F)n2)cc1` [Example 769, 1-[4-({4-[2-(dimethylamine)-4-(trifluoromethyl)-1,3-thiazol-5-yl]pyrimidin-2-yl}amino)phenyl]ethanone], the logP is 3.44*.

The data set is the same for the next values; noted with them: logP, * HPLC reversed-phase C18, 40° C., mobile phase 0.1% aqueous formic acid and acetonitrile, linear gradient 10% to 95% acetonitrile.
In turn, `CCc1nc(C)c(-c2ccnc(Nc3cccnc3)n2)s1` [Example 714, 4-(2-ethyl-4-methyl-1,3-thiazol-5-yl)-N-pyridin-3-ylpyrimidine-2-amine] yielded a chromatographic logP of 1.35. Same read-out and setting: then `COc1cc(Nc2nccc(-c3cnc(-c4ccc(Cl)cc4)s3)n2)cc(OC)c1OC` [Example 792, 4-[2-(4-chlorophenyl)-1,3-thiazol-5-yl]-N-(3,4,5-trimethoxyphenyl)pyrimidine-2-amine], with 4.12; and `COCc1nc(C)c(-c2ccnc(Nc3ccc(OC)c(Cl)c3)n2)s1` [Example 419, N-(3-chloro-4-methoxyphenyl)-4-[2-(methoxymethyl)-4-methyl-1,3-thiazol-5-yl]pyrimidine-2-amine], with 2.91.

`COCCNc1nc(C)c(-c2ccnc(Nc3ccc(F)c(C)c3)n2)s1` [Example 750, N-(4-fluoro-3-methylphenyl)-4-{2-[(2-methoxyethyl)amino]-4-methyl-1,3-thiazol-5-yl}pyrimidine-2-amine] gave a chromatographic logP of 2.04. Same read-out and setting: then `Cc1nc(C(F)F)c(-c2ccnc(Nc3ccccc3)n2)s1` [Example 710, 4-[4-(difluoromethyl)-2-methyl-1,3-thiazol-5-yl]-N-phenylpyrimidine-2-amine], with 2.97; and `Cc1nc(C(C)C)sc1-c1ccnc(Nc2ccc(CNC(=O)OC(C)(C)C)cc2)n1` [Example 633, tert-butyl-(4-{[4-(2-isopropyl-4-methyl-1,3-thiazol-5-yl)pyrimidin-2-yl]amino}benzyl)carbamate], with 3.68; and `CCc1nc(C)c(-c2ccnc(N(C(=O)OC)c3ccccc3)n2)s1` [Example 732, methyl-[4-(2-ethyl-4-methyl-1,3-thiazol-5-yl)pyrimidin-2-yl]phenylcarbamate], with 2.59.

Regarding `CCc1nc(C)c(-c2ccnc(Nc3ccc(C(C)=O)cc3)n2)s1` [Example 717, 1-(4-{[4-(2-ethyl-4-methyl-1,3-thiazol-5-yl)pyrimidin-2-yl]amino}phenyl)ethanone], the chromatographic logP was 2.6.

For the compound `COCC(C)Nc1nc(C)c(-c2ccnc(Nc3cccc(N4CCCC4=O)c3)n2)s1` (stereo not shown) [Example 772, 1-{3-[(4-{2-[(2-methoxy-1-methylethyl)amino]-4-methyl-1,3-thiazol-5-yl}pyrimidin-2-yl)amino]phenyl}pyrrolidin-2-one], the chromatographic logP came out at 1.68. Take `CCc1nc(C)c(-c2ccnc(N(C(C)=O)c3cc(OC)c(OC)c(OC)c3)n2)s1` [Example 669, N-[4-(2-ethyl-4-methyl-1,3-thiazol-5-yl)pyrimidin-2-yl]-N-(3,4,5-trimethoxyphenyl)acetamide]: the chromatographic logP amounted to 2.19. Compound `Cc1nc(N2CCOCC2)sc1-c1ccnc(Nc2cccc(Cl)c2)n1` [Example 745, N-(3-chlorophenyl)-4-(4-methyl-2-morpholin-4-yl-1,3-thiazol-5-yl)pyrimidine-2-amine] returned a chromatographic logP of 2.99.

The compound `COCCNc1nc(C)c(-c2ccnc(Nc3ccc(OC)c(OC)c3)n2)s1` [Example 800, N-(3,4-dimethoxyphenyl)-4-{2-[(2-methoxyethyl)amino]-4-methyl-1,3-thiazol-5-yl}pyrimidine-2-amine] gave a chromatographic logP of 1.55.

`COCC(C)Nc1nc(C)c(-c2ccnc(Nc3ccc(N)cc3)n2)s1` (stereo not shown) [Example 737, N-(4-{2-[(2-methoxy-1-methylethyl)amino]-4-methyl-1,3-thiazol-5-yl}pyrimidin-2-yl)benzene-1,4-diamine]: the chromatographic logP worked out at 1.68. Same read-out and setting: then `COc1ccc(Nc2nccc(-c3sc(C)nc3C)n2)cc1O` [Example 790, 5-{[4-(2,4-dimethyl-1,3-thiazol-5-yl)pyrimidin-2-yl]amino}-2-methoxyphenol], with 1.79; and `CCCc1nc(C)c(-c2ccnc(Nc3cc(OC)c(OC)c(OC)c3)n2)s1` [Example 768, 4-(4-methyl-2-propyl-1,3-thiazol-5-yl)-N-(3,4,5-trimethoxyphenyl)pyrimidine-2-amine], with 2.93; and `CCOC(=O)Nc1ccc(Nc2nccc(-c3sc(C(C)C)nc3C)n2)cc1` [Example 796, ethyl-(4-{[4-(2-isopropyl-4-methyl-1,3-thiazol-5-yl)pyrimidin-2-yl]amino}phenyl)carbamate], with 2.18. Same read-out and setting: the same measure for `COCC(C)Nc1nc(C)c(-c2ccnc(Nc3cccc(Cl)c3)n2)s1` (stereo not shown) [Example 437, N-(3-chlorophenyl)-4-{2-[(2-methoxy-1-methylethyl)amino]-4-methyl-1,3-thiazol-5-yl}pyrimidine-2-amine]: 2.47; for `CC(=O)NCc1cccc(Nc2nccc(-c3sc(C4CC4)nc3C)n2)c1` [Example 414, N-(3-{[4-(2-cyclopropyl-4-methyl-1,3-thiazol-5-yl)pyrimidin-2-yl]amino}benzyl)acetamide]: 1.96.

Still in this data set, the particulars now being: logP, values marked *: HPLC on reversed-phase C 18, 40° C., mobile phase 0.1% aqueous formic acid and acetonitrile, linear gradient 10% to 95% acetonitrile.
`COc1ccc(Nc2nccc(-c3sc(C(C)C)nc3C)n2)cc1` [Example 821, 4-(2-isopropyl-4-methyl-1,3-thiazol-5-yl)-N-(4-methoxyphenyl)pyrimidine-2-amine] yielded a chromatographic logP of 3.25. The same measure, in the same setting: the same measure for `COCCOc1nc(C)c(-c2ccnc(Nc3ccc(F)cc3)n2)s1` [Example 899, N-(4-fluorophenyl)-4-[2-(2-methoxyethoxy)-4-methyl-1,3-thiazol-5-yl]pyrimidine-2-amine]: 3.12. The compound `COCCOc1nc(C)c(-c2ccnc(Nc3cccc(C(C)=O)c3)n2)s1` [Example 912, 1-[3-({4-[2-(2-methoxyethoxy)-4-methyl-1,3-thiazol-5-yl]pyrimidin-2-yl}amino)phenyl]ethanone] gave a chromatographic logP of 2.64. Compound `COCCCNc1nc(C)c(-c2ccnc(Nc3ccc(F)cc3)n2)s1` [Example 851, N-(4-fluorophenyl)-4-{2-[(3-methoxypropyl)amino]-4-methyl-1,3-thiazol-5-yl}pyrimidine-2-amine] yielded a chromatographic logP of 1.92. Still for that read-out and setting: the same measure for `COCCOc1nc(C)c(-c2ccnc(Nc3cccc([N+](=O)[O-])c3)n2)s1` [Example 911, 4-[2-(2-methoxyethoxy)-4-methyl-1,3-thiazol-5-yl]-N-(3-nitrophenyl)pyrimidine-2-amine]: 3.08.

On to `COCCOc1nc(C)c(-c2ccnc(Nc3ccccc3)n2)s1` [Example 901, 4-[2-(2-methoxyethoxy)-4-methyl-1,3-thiazol-5-yl]-N-phenylpyrimidine-2-amine], for which the chromatographic logP is 3.01. On the same count and under the same terms, then `COCCNc1nc(C)c(-c2ccnc(Nc3ccc(Cl)nc3)n2)s1` [Example 872, N-(6-chloropyridin-3-yl)-4-{2-[(2-methoxyethyl)amino]-4-methyl-1,3-thiazol-5-yl}pyrimidine-2-amine], with 1.71; and `COc1ccc(Nc2nccc(-c3sc(C(C)C)nc3C)n2)cc1OC` [Example 819, N-(3,4-dimethoxyphenyl)-4-(2-isopropyl-4-methyl-1,3-thiazol-5-yl)pyrimidine-2-amine], with 2.85.

Still in this data set, the particulars now being: values marked *: HPLC on reversed-phase C 18, 40° C., mobile phase 0.1% aqueous formic acid and acetonitrile, linear gradient 10% to 95% acetonitrile.
Regarding `CC(=O)Nc1ccc(Nc2nccc(-c3sc(N(C)C)nc3C)n2)cc1` [Example 862, N-[4-({4-[2-(dimethylamine)-4-methyl-1,3-thiazol-5-yl]pyrimidin-2-yl}amino)phenyl]acetamide], the logP is listed as 1.33*.
